# Experimental data published in BindingDB's records for patent US20250019357 (Tactogen, 2025).
# pEC50, pIC50, pKi: −log10 of the molar value.
# How the values were obtained:
# [1] = Human Serotonin Transporter (SERT, SLC6A4) Functional Antagonist Uptake Assay
# Procedure: (§1) Benzofuran derivatives were evaluated for inhibiting the human 5-HT transporter (hSERT) as expressed in CHO cells using an antagonist radioligand assay (Tatsumi, M. et al. (1999), Eur. J. Pharmacol., 368: 277-283).
# [2] = target: Sodium-dependent serotonin transporter (Homo sapiens, UniProt P31645); experiment: as above
# Chain of Sodium-dependent serotonin transporter (P31645 whole entry): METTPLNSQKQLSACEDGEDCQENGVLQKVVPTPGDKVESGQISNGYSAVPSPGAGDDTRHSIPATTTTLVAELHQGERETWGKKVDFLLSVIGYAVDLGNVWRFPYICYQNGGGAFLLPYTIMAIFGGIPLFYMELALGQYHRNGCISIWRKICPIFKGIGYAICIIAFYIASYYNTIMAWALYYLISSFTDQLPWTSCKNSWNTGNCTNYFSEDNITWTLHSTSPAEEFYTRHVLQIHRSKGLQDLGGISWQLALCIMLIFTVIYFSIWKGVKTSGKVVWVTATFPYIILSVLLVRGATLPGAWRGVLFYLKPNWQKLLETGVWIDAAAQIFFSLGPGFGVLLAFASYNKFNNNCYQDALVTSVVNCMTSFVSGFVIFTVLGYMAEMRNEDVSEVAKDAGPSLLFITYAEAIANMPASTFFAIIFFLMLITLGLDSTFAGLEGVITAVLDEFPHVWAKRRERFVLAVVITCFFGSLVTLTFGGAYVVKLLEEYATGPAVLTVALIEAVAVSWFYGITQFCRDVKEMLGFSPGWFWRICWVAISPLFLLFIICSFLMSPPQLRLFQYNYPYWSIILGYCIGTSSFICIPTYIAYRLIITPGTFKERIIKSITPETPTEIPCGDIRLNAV
# Procedure: as §1
# [3] = target: 5-hydroxytryptamine receptor 1B (Homo sapiens, UniProt P28222); experiment: 5-HT1BR cAMP Secondary Messenger Agonist Assay
# Chain of 5-hydroxytryptamine receptor 1B (P28222 whole entry, the tested form may be a part): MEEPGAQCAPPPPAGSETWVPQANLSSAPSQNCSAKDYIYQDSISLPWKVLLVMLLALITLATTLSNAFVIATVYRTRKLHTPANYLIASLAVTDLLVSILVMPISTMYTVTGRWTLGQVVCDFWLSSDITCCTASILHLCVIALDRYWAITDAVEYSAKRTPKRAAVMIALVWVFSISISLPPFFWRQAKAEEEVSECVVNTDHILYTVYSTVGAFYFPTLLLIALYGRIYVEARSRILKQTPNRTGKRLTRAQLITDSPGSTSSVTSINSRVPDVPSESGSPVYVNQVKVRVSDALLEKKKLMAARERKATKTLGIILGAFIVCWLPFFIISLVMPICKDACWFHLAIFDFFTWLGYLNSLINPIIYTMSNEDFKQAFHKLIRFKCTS
# Source text: The 5-HT1BR cAMP secondary messenger agonist assay used a panel of CHO-K1 cell lines stably expressing non-tagged GPCRs that endogenously signal through cAMP. Hit Hunter cAMP assays monitored the activation of a GPCR via Gi and Gs secondary messenger signaling in a homogenous, non-imaging assay format using DiscoverX Enzyme Fragment Complementation (EFC) with β-galactosidase as the functional endpoint.
compound,measurement,setting,value
"CC[C@H](Cc1ccc2ccoc2c1)NC [US20250019357, Compound R-6-MBPB]",pEC50,[1],6.76
"CC[C@H](Cc1ccc2ccoc2c1)NC [US20250019357, Compound R-(-)-6-MBPB]",pIC50,[2],5.24
same,pKi,[2],5.59
"CCC(NC)C(=O)c1ccc2occc2c1 (single isomer, unassigned; form 2) [US20250019357, Compound (-)-BK-5MBPB]",pEC50,[3],5.18
"CNC(C)C(=O)c1ccc2occc2c1 (single isomer, unassigned; form 1) [US20250019357, Compound (-)-BK-5MAPB]",pEC50,[3],7.11
"CNC(C)C(=O)c1ccc2occc2c1 (single isomer, unassigned; form 2) [US20250019357, Compound (+)-BK-5MAPB]",pEC50,[3],5.51
"CNC(C)C(=O)c1ccc2ccoc2c1 (single isomer, unassigned; form 2) [US20250019357, Compound (+)-BK-6MAPB]",pEC50,[3],< 5.00
"CC[C@@H](Cc1ccc2ccoc2c1)NC [US20250019357, Compound S-6-MBPB]",pEC50,[1],7.27
"CC[C@@H](Cc1ccc2ccoc2c1)NC [US20250019357, Compound S-(+)-6-MBPB]",pIC50,[2],5.57
same,pKi,[2],5.92
"CCC(NC)C(=O)c1ccc2occc2c1 (single isomer, unassigned; form 1) [US20250019357, Compound (+)-BK-5MBPB]",pEC50,[3],< 4.52
